Reference: PubChem BioAssay (NCI)
Several values for one entry are separate records, joined by “and”; a condition that tells them apart may be missing. Identical values can stand only once.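 Test compounds were applied to cells in 96-well plates for 48 hours at 5 doses. GI50 = concentration required for 50% inhibition of growth. TGI is the concentration that stops growth completely.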

What was measured:
Assay in all cases: NCI-60 cell line screen, 48 h
SF-295 CNS = system: SF-295 CNS
U251 CNS = system: U251 CNS
SN12C renal = system: SN12C renal
SF-268 CNS = system: SF-268 CNS
NCI-H226 lung = system: NCI-H226 lung
OVCAR-8 ovarian = system: OVCAR-8 ovarian
ACHN renal = system: ACHN renal
HCT-15 colon = system: HCT-15 colon
KM12 colon = system: KM12 colon
HCC-2998 colon = system: HCC-2998 colon

| SMILES | GI50 (SF-295 CNS) [µM] | TGI (SF-295 CNS) [µM] | GI50 (U251 CNS) | TGI (U251 CNS) [µM] | GI50 (SN12C renal) | TGI (SN12C renal) [µM] | GI50 (SF-268 CNS) | TGI (SF-268 CNS) [µM] | GI50 (NCI-H226 lung) | TGI (NCI-H226 lung) [µM] | GI50 (OVCAR-8 ovarian) | TGI (OVCAR-8 ovarian) [µM] | GI50 (ACHN renal) [µM] | TGI (ACHN renal) [µM] | GI50 (HCT-15 colon) [µM] | TGI (HCT-15 colon) [µM] | GI50 (KM12 colon) [µM] | TGI (KM12 colon) [µM] | GI50 (HCC-2998 colon) [µM] | TGI (HCC-2998 colon) [µM] |
| --- | --- | --- | --- | --- | --- | --- | --- | --- | --- | --- | --- | --- | --- | --- | --- | --- | --- | --- | --- | --- |
| CCN(CC)c1ccc(/C=N\NC(=O)c2cccc(Nc3ccnc(C(F)(F)F)c3)c2)c(O)c1 | 0.312 | 2.47 | 0.183 µM | > 37.5 | 0.278 µM | > 36.5 | 0.083 µM | > 27.3 | 0.311 µM | 3.48 | 0.342 µM | > 100 | 0.218 | > 40.4 | 0.123 | > 100 | 0.342 | > 100 | 0.278 | 8.76 |
| N#CC(/C(=N\NC(N)=S)C(=O)NC1C2CC3CC(C2)CC1C3)c1ccc(Cl)cc1 (stereo not given) | – | > 100 | – | > 100 | – | > 100 | – | > 100 | – | > 100 | – | > 100 | – | > 100 | – | > 100 | – | > 100 | – | > 100 |
| CC(C)=CCC[C@](C)(O)[C@H]1CC[C@]2(C)[C@@H]1CC[C@@H]1[C@@]3(C)CC[C@H](OC(=O)CCC(=O)O)C(C)(C)[C@@H]3CC[C@]12C | 28.6 | 92.5 | 28.1 µM | > 100 | 25.5 µM | 78.1 | 29.9 µM | > 100 | 16.7 µM | 40.3 | 35.5 µM | > 100 | 28.3 | > 100 | 19.5 | 48.6 | 18.5 | 41.2 | 30.6 | > 100 |
| CN1C=CN(Cc2ccc(-c3ccccn3)nc2)[CH-]1.CN1C=CN(Cc2ccc(-c3ccccn3)nc2)[CH-]1.[Au+3] | 4.87 | > 100 | 4.35 µM | 20.8 | 2.98 µM | > 45 | 5.91 µM | 26.2 | 5.65 µM | > 64.2 | 3.19 µM | > 100 | 14.6 | > 100 | 1.6 | > 54.6 | 1.89 | > 38.2 | 5.47 | > 42.7 |
| C=C1C(=O)C23C(CC(OC(C)=O)C1[C@@H]2OC(C)=O)C1(C)C(OC(C)=O)CCC(C)(C)C1C[C@@H]3OC(C)=O (stereo not given in full) | – | 2.86 | – | 2.95 | – | 2.8 | – | 2.98 | – | 3.13 | – | 1.59 | – | 2.92 | – | 2.52 | – | 3.49 | – | 3.24 |
| COc1cc(Nc2ncc(-c3ccccc3)o2)cc(OC)c1OC | 2.7 | > 25 | 4.35 µM | > 25 | 6.35 µM | > 25 | 4.73 µM | > 25 | 2.97 µM | > 25 | 8.3 µM | > 25 | 1.18 | > 25 | 0.547 | > 25 | 0.152 | > 25 | 5.08 | > 25 |
| Cc1cc(I)cc(CN(C)CCCCN2CCCC2)c1O | 13.2 | 28.6 | 18.9 µM | 49.5 | 52.2 µM | > 100 | 18.1 µM | 55.7 | 30 µM | > 100 | 37.2 µM | > 100 | 36.8 | > 100 | 15.6 | 37.3 | 19.8 | 53.9 | 18 | 36.3 |
| COC(=N)/C(=C1\OC(N)=C(c2ccc(Cl)cc2)C1=O)c1ccc(Cl)cc1 | – | > 100 | – | > 100 | – | > 100 | – | > 100 | – | > 100 | – | > 100 | – | > 100 | – | > 100 | – | > 100 | – | > 100 |
| C=C1C(=O)O[C@H]2[C@H](OC(C)=O)[C@@H](C)CCC/C(C)=C/CC[C@]3(CO3)[C@H](O)C[C@@H]12 | 19.7 | 49.3 | 3.71 µM | 12.4 | 4.26 µM | 14.3 | 3.93 µM | 13.6 | 16.3 µM | 38.6 | 3.06 µM | 10.8 | 2.3 | 4.17 | 1.84 | 3.76 | 2.33 | 8.96 | 15.2 | 28.4 |
| CCCC/C(C)=N/NC(N)=S | – | > 100 | – | > 100 | – | > 100 | – | > 100 | – | > 100 | – | > 100 | – | > 100 | – | > 100 | – | > 100 | – | > 100 |
| C/C(=N\NC(=S)Nc1ccc([N+](=O)[O-])cc1S(=O)(=O)O)c1ccccn1 | – | > 100 | – | > 100 | – | > 100 | – | > 100 | – | > 100 | – | > 100 | – | > 100 | – | > 100 | – | > 100 | – | > 100 |
| Fc1cc(Nc2ccc3c(OCCCN4CCOCC4)cccc3n2)ccc1Cl | 1.97 | 3.96 | 1.85 µM | 3.75 | 4.36 µM | 19.3 | 3.13 µM | 17 | 2.76 µM | 7.83 | 4.03 µM | 15.3 | 3.09 | 10.8 | 1.4 | 3.06 | 2.3 | 5.46 | 1.78 | 3.49 |
| Cc1cc(C#Cc2ccccc2)ccc1-n1c(/C=C/c2ccc(O)cc2)nc2ccccc2c1=O | 2.85 | 13.6 | 4.33 µM | > 100 | 3.77 µM | 38.3 | 4.56 µM | > 100 | 3.99 µM | > 100 | 3.98 µM | > 100 | 2.46 | 8.52 | 2.5 | 19.2 | 3.24 | 12.6 | 2.35 | 7.35 |
| O=C(O)c1c(Cl)c(Cl)c(Cl)c(Cl)c1-c1c2cc(I)c(=O)c(I)c-2oc2c(I)c(O)c(I)cc12 | 38.1 | 78.7 | 26.3 µM and 35.1 µM | 83.9 | 75.5 µM and 32.6 µM | 103 | 41.3 µM and 36.8 µM | 81.2 | 79.7 µM and 38.8 µM | 90.9 | 58.2 µM and 47.4 µM | 115 | 54.8 | > 200 | 55.7 | 162 | 53.6 | 182 | 36.5 | 70.8 |
| CCOc1ccc(N2C(N)=NC(N)=NC2(C)C)cc1 | 48.1 | > 100 | 36.6 µM | > 100 | 52.7 µM | > 100 | 49.3 µM | > 100 | > 100 µM | > 100 | 62.3 µM | > 100 | > 100 | > 100 | > 100 | > 100 | 74 | > 100 | > 100 | > 100 |
| COc1cc(C=NCC(=O)CSC(c2ccccc2)c2ccccc2)cc(OC)c1OC | 11.5 | 58.2 | 32.2 µM | > 100 | 25.8 µM | > 100 | 34.6 µM | > 100 | 17.9 µM | > 100 | 19.2 µM | > 100 | 26.4 | > 100 | 21.5 | > 100 | 25.3 | 82.1 | 23 | 57.3 |
| O=c1c2c(=NCCCN3CCCC3)cc3c(=O)n(CCCN4CCCC4)c(=O)c4c(NCCCN5CCCC5)cc(c(O)n1CCCN1CCCC1)c2c4-3 | 1.95 | 8.61 | 0.647 µM | 10.4 | 3.11 µM | 34.2 | 2.23 µM | 8.66 | 1.07 µM | 7.8 | 1.74 µM | 12.3 | 2.55 | 26.4 | 6.91 | > 100 | 3.27 | 12.7 | 6.84 | 23.1 |
| CCOC(=O)c1cc2cc([N+](=O)[O-])ccc2oc1=O | – | > 100 | – | > 100 | – | > 100 | – | > 100 | – | > 100 | – | > 100 | – | > 100 | – | > 100 | – | > 100 | – | > 100 |
| CC(Cl)CC(=O)Nc1ccc2c(c1)oc(=O)c1cc(NC(=O)CC(C)Cl)ccc12 (stereo not given) | 10.1 | 36.5 | 11.1 µM | 23.7 | 16.4 µM | 32 | 10.1 µM | 33.3 | 23.6 µM | > 100 | 10.4 µM | 28.8 | 12.2 | 31.8 | 13.2 | 45.8 | 7.44 | 24.4 | 34.9 | > 100 |
| COc1cc(SC)ccc1C(=O)N1CCCC(C)C1 (stereo not given) | > 100 | > 100 | > 100 µM | > 100 | > 100 µM | > 100 | > 100 µM | > 100 | 80.4 µM | > 100 | > 100 µM | > 100 | > 100 | > 100 | > 100 | > 100 | > 100 | > 100 | > 100 | > 100 |
| Cc1ccc(NC(=O)CCC(=O)C(C#N)c2ccc(Cl)cc2)cc1C (stereo not given) | – | > 100 | – | > 100 | – | > 100 | – | > 100 | – | > 100 | – | > 100 | – | > 100 | – | > 100 | – | > 100 | – | > 100 |
| Nc1nc(Cl)cc(NCCCCCCCCCCNc2cc(Cl)nc(N)n2)n1 | – | 46.4 | – | > 100 | – | > 100 | – | > 100 | – | 20.3 | – | 63 | – | 0.0447 | – | > 100 | – | > 100 | – | > 100 |
| COc1cc(C(N)=O)c(OC)c(OC)c1OC | – | > 100 | – | > 100 | – | > 100 | – | > 100 | – | > 100 | – | > 100 | – | > 100 | – | > 100 | – | > 100 | – | > 100 |
